Experiment [1] has as its system SAA-induced production of IL-18 by THP-1 cells. Briefly: SAA-stimulated inflammation in THP-1 cells: IL-18 production. In kind it is cell-based. The note with it: THP-1 cells treated with PMA and SAA. The text has this:
(§1) FIG. 1 summarizes the protocol employed to evaluate the effect of 1,3-propanedisulfonic acid (or a pharmaceutically acceptable salt thereof) on SAA (serum amyloid A) stimulated inflammation in THP-1 cells.
(§2) THP-1 cells were subjected to PMA (phorbol 12-myristate 13-acetate (EMD Cat. #524400)), SAA (serum amyloid A (PeroTech Cat. #300-13)), and 1,3-propanedisulfonic acid (KIACTA C933 (NRA610-01-CF)). The SAA treated cells were used as a positive control, with the SAA increasing the inflammatory mediators, TNF, IL-18 and IL-10. 1,3-propanedisulfonic acid is added to the cell cultures and the effect on TNF, IL-18 and IL-10 levels is measured.

For experiment [2], the system named is SAA-induced production of IL-TNF by THP-1 cells. Briefly: SAA-stimulated inflammation in THP-1 cells: TNF production. In kind it is cell-based. The settings on record: THP-1 cells treated with PMA and SAA.
Description: as §1, §2

The test system of experiment [3] is SAA-induced production of IL-10 by THP-1 cells. Briefly: SAA-stimulated inflammation in THP-1 cells: IL-10 production. In kind it is cell-based. The settings on record: THP-1 cells treated with PMA and SAA.
Description: as §1, §2

Another experiment relates to sarcoidosis. Kind of experiment: Treatment of a patient diagnosed with sarcoidosis. In kind it is in vivo. As to the method:
A patient is diagnosed with sarcoidosis, and 1,3-propane disulfonic acid is administered to the patient.

On to `O=S(=O)(O)CCCS(=O)(=O)O` [1,3-propanedisulfonic acid], for which the “concentration that inhibits SAA-induced production of IL-18” value in experiment [1] is ≥ 5 mg/mL. Also, the “concentration that inhibits SAA-induced production of IL-TNF” value in experiment [2] was ≥ 1.25 mg/mL. Besides, in experiment [3], the “concentration that inhibits SAA-induced production of IL-10” value is ≥ 2.5 mg/mL. In addition, the “effect on sarcoidosis symptoms” value in the experiment with sarcoidosis is “reduction and/or alleviation of sarcoidosis symptoms”.

Source of the values: patent US11413260B2, “Use of 1,3-propanedisulfonic acid or pharmaceutically acceptable salts thereof for the treatment of sarcoidosis” (Icahn School of Medicine at Mount Sinai, priority 2014, dated 2022).
